Test: Solubility of Compound 1 in solvents
Type: physicochemical

CC(C)(CO)c1cc2cc(NC(=O)C3(c4ccc5c(c4)OC(F)(F)O5)CC3)c(F)cc2n1C[C@@H](O)CO [Compound 1, (R)-1-(2,2-difluorobenzo[d][1,3]dioxol-5-yl)-N-(1-(2,3-dihydroxypropyl)-6-fluoro-2-(1-hydroxy-2-methylpropan-2-yl)-1H-indol-5-yl)cyclopropanecarboxamide]
solubility (acetonitrile, methanol, ethanol, isopropyl alcohol, acetone, organic solvent or mixture): > 20 mg/mL
solubility (organic solvent or mixture, first solvent, e.g. ethyl acetate, ethanol, isopropyl alcohol, or acetone): > 20 mg/mL
solubility (second solvent, for example heptane or water): < 1 mg/mL
